These results are taken from publication PMC6969910, “Repurposing Dihydropyridines for Treatment of Helicobacter pylori Infection” (Pharmaceutics, 2019).

Data set [1] deals with H. pylori strain ATCC 700684. The data set is described as follows: Time-kill kinetics assay. Type of data set: cell-based, Helicobacter pylori. Particulars: 2 × MIC. On the procedure:
Time–kill curves for selected DHP drugs were determined using the H. pylori strain ATCC 700684 [17]. […] DMSO instead of drugs was included as control. Colony forming units (CFUs) were determined after 4, 8, and 24 h of drug exposition by culturing on Blood Agar Base No.2 supplemented with 8% defibrinated horse blood for 72 h under microaerobic conditions. Each determination was performed twice in triplicate and the results were presented as log10 CFU/mL versus incubation time. Statistical analysis was performed using the Mann–Whitney U test. A p value smaller than 0.05 was considered significant.

Data set [2] concerns H. pylori ATCC 43504 (metronidazole-resistant). As to the kind of experiment: MIC/MBC by broth microdilution, strain ATCC 43504 (MTZ-R). Type of data set: cell-based. The conditions noted are these: Helicobacter pylori. On the technique in general: In broth dilution the organism is exposed to a series of concentrations in liquid medium.
For the next data set, the system named is H. pylori ATCC 700392. As to the kind of experiment: MIC/MBC by broth microdilution, strain ATCC 700392. The conditions noted are these: Helicobacter pylori, ATCC700392. Type of data set: cell-based.
A further data set deals with Mouse. Particulars: ref PubChem; cited from earlier work.
In data set [3] the test system is H. pylori essential response regulator HsrA. Also noted: method as in PMID 31383920. The conditions noted are these: binds native state of HsrA; cited from earlier work.
Data set [4] concerns the target T1, H. pylori HsrA response regulator (Helicobacter pylori, UniProt O25684). Type of data set: biochemical. The conditions noted are these: EMSA. On the procedure:
The in vitro biological activity of the H. pylori HsrA response regulator and its potential inhibition by DHP drugs were assessed by electrophoretic mobility shift assay (EMSA) as previously described. Briefly, 120 ng of target DNA (promoter region of the H. pylori porGDAB operon) was mixed with 6 µM of recombinant HsrA [17] in the presence of increasing concentrations (0.1 to 2 mM) of selected DHP drugs. Mixtures of DNA and protein in a 20 μL reaction volume containing 10 mM bis-Tris (pH 7.5), 40 mM KCl, 100 mg/L BSA, 1 mM DTT and 5% glycerol were incubated at room temperature for 20 min and then separated by 6% native polyacrylamide gel electrophoresis. A 150 bp fragment of the Anabaena sp. PCC 7120 gene pkn22 was included as non-specific competitor DNA in all assays. EMSA gels were stained with SYBR Safe® (Thermo Fisher Scientific, Bothell, WA, USA) and analyzed using the Bio-Rad Gel Doc 2000 imaging system.
For orientation: In EMSA bound probe runs differently from free probe, usually more slowly.

The test system of data set [5] is H. pylori ATCC 700684 (clarithromycin resistant). As to the kind of experiment: MIC/MBC by broth microdilution, strain ATCC 700684 (CLR-R). Particulars: Helicobacter pylori. Type of data set: cell-based.
Data set [6] has as its target T1, H. pylori HsrA response regulator. As to the kind of experiment: biochemical. Particulars: ITC, 25 °C, pH 8. Type of data set: binding. On the procedure: Thermodynamic parameters of the molecular interaction between HsrA and its DHP-class inhibitors were analyzed by isothermal titration calorimetry (ITC) using an AutoiTC200 calorimeter (MicroCal, Malvern Instruments, Malvern, Worcestershire, UK). A solution of 20 µM of the protein in 50 mM Tris-HCl [pH 8], 150 mM NaCl, 10% glycerol, 1% DMSO was titrated with 200 µM of the corresponding ligand (DHP) dissolved in the same buffer at 25 °C. A total of 19 injections of 2 μL was added sequentially to the sample cell after 150 s spacing to ensure that the thermal power returned to the baseline before the next injection. Dissociation constants and binding enthalpies were calculated by non-linear least squares regression data analysis using the software package Origin 7.0 (OriginLab, Northampton, MA, USA).

Structures are written as SMILES. Converted amounts (≈) assume the structure as drawn.

T1 sequence (O25684 entry or part of it): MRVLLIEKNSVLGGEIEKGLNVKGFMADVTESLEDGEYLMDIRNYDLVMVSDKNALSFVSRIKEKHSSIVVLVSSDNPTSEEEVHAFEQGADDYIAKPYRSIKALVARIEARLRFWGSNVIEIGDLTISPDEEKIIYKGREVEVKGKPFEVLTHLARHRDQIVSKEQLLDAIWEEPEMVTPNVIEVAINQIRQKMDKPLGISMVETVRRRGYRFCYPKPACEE

Usually MBC stands for the lowest tested concentration that kills the bacteria rather than only halting them. The MIC is the lowest concentration that inhibits growth of the organism. Higher therefore signals weaker potency. A word on the Kd: it is the constant that tells how readily two partners part at equilibrium. Consider `COC(=O)C1=C(C)NC(C)=C(C(=O)OCCN(C)Cc2ccccc2)C1c1cccc([N+](=O)[O-])c1` (stereo not shown) [Nicardipine], for which the “Decline in bacterial counts (time-kill kinetics) compared to other DHPs” value in data set [1] was “significantly faster”. Moreover, in data set [1] (4 h), the “Killing effect after 4 h of exposition” value is on record as “completely lethal”. In addition, the MBC (in data set [2] (ATCC43504); with H. pylori ATCC 700392 (ATCC 700392); in data set [5] (ATCC700684)) was 8 µg/mL (≈ 16.7 µM) each time. For the same compound, the minimum inhibitory concentration (MIC) in data set [2] (ATCC43504, 72 h) came out at 8 µg/mL (≈ 16.7 µM); with H. pylori ATCC 700392 (ATCC 700392, 72 h), 8 µg/mL (≈ 16.7 µM); in data set [5] (ATCC700684, 72 h) it was 8 µg/mL (≈ 16.7 µM). Moreover, in the data set on Mouse, the “Mouse LD50 (mg/kg, oral)” value is on record as 305 mg/kg. Further, the “Effect on HsrA conformational stability (thermal shift)” value in data set [3] is given as “increased the protein conformational stability”. The “Inhibition of the DNA binding activity of HsrA” value in data set [4] (6 µM HsrA, 120 ng target promoter, 0.1 to 2 mM DHP) was “noticeably inhibited”. Besides, the “Inhibition of HsrA activity at 100 μM” value in data set [4] (100 μM drug, 6 μM HsrA) is given as “partially inhibited”. Besides, in data set [6] (absolute error 0.06), the “n (binding stoichiometry)” value amounted to 0.72. The ΔG in data set [6] (absolute error 0.2 kcal/mol) was -7.5 kcal/mol. In data set [6] (absolute error 0.4 kcal/mol), this compound came in with a ΔH of -2.0 kcal/mol. In addition, in data set [6] (relative error 40%, read-out: Kd), the Kd was determined as 3 µM.
